# Measurements as given in patent US8778958B2, “Synthesis of metabolically stable agents for alcohol and drug abuse” (priority 2008, dated 2014).
# Read-outs that look alike come from different tables or passages of the source.
# Columns and labels:
# δ-opioid receptor [1] = target: T1, δ-opioid receptor (Mus musculus, UniProt P32300); assay: biochemical; type: biochemical, human; conditions: read-out: Emax, δ, inhibition of basal [35S]GTPγS binding
# T1 construct: hemagglutinin (HA); expressed in transfected cells
# μ-opioid receptor [2] = target: T2, μ-opioid receptor (Mus musculus, UniProt P42866); assay: biochemical; type: biochemical, human; conditions: read-out: Emax, μ, inhibition of basal [35S]GTPγS binding
# T2 construct: FLAG; expressed in transfected cells
# κ-opioid receptor [3] = target: T3, κ-opioid receptor (Mus musculus, UniProt P33534); assay: biochemical; design: species or system human
# T3 construct: FLAG; expressed in transfected cells
# [4] = Metabolic stability, human liver S-9; conditions: for half-life at 40 μM: human, s9, pH 7.4; for Half Life, Human liver preparation: 40 μM test compound, NADPH-generating system, NC = No Change
# Description: (§1) A typical assay mixture contained rat or mouse liver microsomes or human liver S-9 (0.4-0.5 mg of protein), 100 μM potassium phosphate buffer (pH 7.4), 40 μM test compound, an NADPH-generating system consisting of 0.5 mM NADP^+, 0.5 mM glucose-6-phosphate, 5 IU/mL glucose-6-phosphate dehydrogenase, 1 mg/mL DETAPAC and 7 mM MgCl2 for a final incubation volume of 0.1 mL^23. […] After centrifugation at 13,000 rpm for 5 min, the organic fraction was collected and the solvent was removed with a stream of argon. The residue was reconstituted in methanol (200 L), centrifuged at 13,000 rpm for 5 min and the supernatant was analyzed by high-performance liquid chromatography with an Axxi-chrom (straight-phase) silica column (4.6 mm×250 mm, 5 m) or with a Supelco (reverse-phase) HS F5 pentafluorophenyl column (4.6 mm×250 mm, 5 m) as described above.
# μ-opioid receptor [5] = target: T2, μ-opioid receptor; assay: biochemical; design: species or system human
# [6] = target: T4, NOP (nociceptin) receptor (Homo sapiens, UniProt P41146)
# [7] = target: T4, NOP (nociceptin) receptor; assay: Inhibition of basal [35S]GTPγS binding (inverse agonism), NOP; type: biochemical; design: FLAG; expressed in transfected cells
# κ-opioid receptor [8] = tested on: T5, κ-opioid receptor; assay: biochemical; type: biochemical, human; conditions: read-out: Emax, κ, inhibition of basal [35S]GTPγS binding
# T5 construct: FLAG; expressed in transfected cells
# [9] = Metabolism of compound 6 in human liver microsomes; conditions: going from pH 7.4 to pH 10
# Description: For analysis, 50 μg of 6,6-N-oxide and bromobenzoic acid was used as TLC standards and the UV-vis bands corresponding to these regions were scraped and placed in scintillation vials for counting and quantification. For the HPLC assay, the incubation was stopped by the addition of isopropanol/CH2Cl2 (3/1, v/v), mixed thoroughly and the organic layer was separated by centrifugation. […] The analytes were quantified on the basis of HPLC peak height.
# [10] = Metabolic stability, mouse liver microsomes; conditions: for half-life at 40 μM: mouse, microsomes, pH 7.4; for Half Life, Mouse liver preparation: 40 μM test compound, NADPH-generating system, NC = No Change
# Description: as §1
# δ-opioid receptor [11] = target: T1, δ-opioid receptor; assay: biochemical; design: species or system human
# [12] = tested on: rats self-administering 0.5 mg/kg/injection of cocaine; assay: Cocaine self-administration, short (ShA) and long access (LgA)
# Solubility in H2O = conditions: for Solubility in H2O: salt as labelled
# [13] = tested on: rats trained to self-administer a 10% (w/v) ethanol solution; assay: Operant oral ethanol self-administration; type: in vivo, rat; conditions: for Overall effect on operant self-administration of 10% ethanol: ANOVA, treatment 30 min prior to testing; for ED50: Rattus norvegicus, po, read-out: ED50 for ethanol self-administration
# Description: (§2) Ethanol or saccharin (SACC) self-administration training was conducted in standard operant cages (Coulbourn Instruments, PA) located in sound-attenuated, ventilated cubicles. Two 35-ml syringes dispensed either ethanol/SACC or water through plastic tubing into two stainless steel drinking cups mounted 4 cm above the grid floor and centered on the front panel of each chamber. Each drinking cup held 2 reinforcer deliveries (0.1 ml fluid/reinforcer). Two retractable levers were located 4.5 cm to either side of the drinking cups. Fluid delivery and recording of operant responses were controlled by a microcomputer. Briefly, animals were trained to voluntarily self-administer 10% (w/v) ethanol (n=10) or saccharin (n=6) by the oral route using the saccharin fadeout method^39 and were tested for their response for ethanol or saccharin solution in a two-lever free choice situation. Once baseline ethanol and saccharin intake were achieved (i.e., when responding across 3 consecutive days varied less than 20% and response rates correspond to pharmacologically relevant blood alcohol levels (BALs)), dose response testing for each compound commenced. To allow for a complete dissipation of any carry-over effects, a one week washout period, where rats were re-baselined during daily 30 min operant sessions, occurred between testing of each compound.
# (§3) Data were collected on-line simultaneously from multiple operant chambers. Results of the operant procedure are reported as mean cumulative number of bar presses for ethanol or saccharin. In general, tests for homogeneity of variance were first performed on the data. […] Data were analyzed using the StatView statistical package on a PC-compatible computer. Mixed-design ANOVAs were used with drug treatments as a within-subjects factor (i.e., repeated measures design for drug treatment). A priori analysis examining individual drug doses to vehicle control dose was conducted using paired t-tests. Significant drug effects were defined as having p<0.05 compared to vehicle-treated rats.
# [14] = tested on: rats trained to orally self-administer a 0.025% saccharin solution; assay: Operant oral saccharin self-administration (control); type: in vivo, rat; conditions: for Overall effect on operant self-administration of saccharin vs vehicle: ANOVA
# Description: as §2, §3
# [15] = read-out: Emax, κ, stimulation of [35S]GTPγS binding
# [16] = read-out: Emax, μ, stimulation of [35S]GTPγS binding
# [17] = read-out: Emax, δ, stimulation of [35S]GTPγS binding
# [18] = doses of 0.0125, 0.025 and 0.05 mg/kg
# T1 sequence (P32300 whole entry): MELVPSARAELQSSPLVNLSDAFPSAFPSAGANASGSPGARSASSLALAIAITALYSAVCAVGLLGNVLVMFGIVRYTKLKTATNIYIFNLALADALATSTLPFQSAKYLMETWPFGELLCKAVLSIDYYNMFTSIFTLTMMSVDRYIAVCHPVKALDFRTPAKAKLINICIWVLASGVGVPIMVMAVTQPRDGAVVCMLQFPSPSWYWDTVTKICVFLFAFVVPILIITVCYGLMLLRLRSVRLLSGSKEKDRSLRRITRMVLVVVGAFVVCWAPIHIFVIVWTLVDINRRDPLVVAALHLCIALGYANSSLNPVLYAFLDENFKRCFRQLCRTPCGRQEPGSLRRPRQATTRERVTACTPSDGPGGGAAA
# T2 sequence (P42866 whole entry): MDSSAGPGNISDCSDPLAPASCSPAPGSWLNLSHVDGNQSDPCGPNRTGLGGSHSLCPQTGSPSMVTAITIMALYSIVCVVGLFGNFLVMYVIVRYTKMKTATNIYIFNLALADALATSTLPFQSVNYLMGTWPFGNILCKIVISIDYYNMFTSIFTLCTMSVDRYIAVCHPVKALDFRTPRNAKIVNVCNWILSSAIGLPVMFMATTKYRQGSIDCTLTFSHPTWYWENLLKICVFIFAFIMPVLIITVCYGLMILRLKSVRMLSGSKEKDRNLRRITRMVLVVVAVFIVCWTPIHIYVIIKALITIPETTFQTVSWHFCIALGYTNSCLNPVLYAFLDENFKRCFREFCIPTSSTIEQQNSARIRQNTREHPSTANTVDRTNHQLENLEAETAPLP
# T4 sequence (P41146 whole entry): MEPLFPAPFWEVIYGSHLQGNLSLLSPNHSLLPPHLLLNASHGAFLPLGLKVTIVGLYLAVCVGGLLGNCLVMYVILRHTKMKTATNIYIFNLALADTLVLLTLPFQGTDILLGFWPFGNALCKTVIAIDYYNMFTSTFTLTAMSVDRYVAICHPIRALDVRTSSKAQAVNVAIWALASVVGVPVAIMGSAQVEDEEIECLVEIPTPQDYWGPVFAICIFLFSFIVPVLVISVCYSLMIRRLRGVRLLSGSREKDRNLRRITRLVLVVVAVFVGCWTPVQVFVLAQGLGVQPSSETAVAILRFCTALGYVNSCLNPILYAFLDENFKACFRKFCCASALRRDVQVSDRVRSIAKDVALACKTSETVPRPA
# T3 sequence (P33534 whole entry): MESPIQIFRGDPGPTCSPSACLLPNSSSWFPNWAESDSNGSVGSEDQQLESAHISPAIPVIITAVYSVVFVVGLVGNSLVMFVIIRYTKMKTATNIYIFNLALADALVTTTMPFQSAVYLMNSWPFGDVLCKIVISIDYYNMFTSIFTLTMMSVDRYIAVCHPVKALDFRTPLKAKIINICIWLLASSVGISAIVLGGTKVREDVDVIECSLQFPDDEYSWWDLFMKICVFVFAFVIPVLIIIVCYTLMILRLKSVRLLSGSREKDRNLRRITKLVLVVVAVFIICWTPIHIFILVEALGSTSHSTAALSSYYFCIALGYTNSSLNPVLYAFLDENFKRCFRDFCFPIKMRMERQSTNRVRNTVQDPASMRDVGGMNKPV
# T5 sequence (P33534 whole entry): as above
compound,measurement,setting,value
"O=C(N[C@@H]1CC[C@@]2(O)[C@H]3Cc4ccc(O)c5c4[C@@]2(CCN3CC2CC2)[C@H]1O5)c1ccc(Br)cc1 [Compound 6, 6-β-(4′-Bromo)benzamido-14-hydroxy-17-(cyclopropylmethyl) nordesmorphine]",Emax,δ-opioid receptor [1],35 ± 4.8%
same,Emax,μ-opioid receptor [2],0%
same,"Emax, κ, stimulation of [35S]GTPγS binding",κ-opioid receptor [3],42 ± 3.9%
same,Emax,κ-opioid receptor [3]; [15],28 to 63%
same,half-life at 40 μM,[4],> 1.87 h
same,"Emax, μ, stimulation of [35S]GTPγS binding",μ-opioid receptor [5],38 ± 4.3%
same,Emax,μ-opioid receptor [5]; [16],28 to 63%
same,Emax,[6],0%
same,EC50,[7],94 ± 33 nM
same,Emax,"[7]; read-out: Emax, NOP, inhibition of basal [35S]GTPγS binding",92 ± 7.4%
same,Emax,κ-opioid receptor [8],0%
same,"Rate of N-oxide formation, dependence on pH",[9],the rate doubled
same,half-life at 40 μM,[10],> 1.87 h
same,"Emax, δ, stimulation of [35S]GTPγS binding",δ-opioid receptor [11],46 ± 3.7%
same,Emax,δ-opioid receptor [11]; [17],28 to 63%
"Cc1ccc(C(=O)N[C@@H]2CC[C@@]3(O)[C@H]4Cc5ccc(O)c6c5[C@@]3(CCN4CC3CC3)[C@H]2O6)cc1 [Compound 4, 6-β-(4′-Methyl)benzamido-14-hydroxy-17-(cyclopropylmethyl) nordesmorphine]",Emax,μ-opioid receptor [2],3 ± 2.4%
same,"Half Life, Human liver preparation",[4],remained unchanged
same,Emax,[6],0%
same,melting point,,207.6 °C
same,"Half Life, Mouse liver preparation",[10],remained unchanged
"O=C(N[C@@H]1CC[C@@]2(O)[C@H]3Cc4ccc(O)c5c4[C@@]2(CCN3CC2CC2)[C@H]1O5)c1ccc(Br)cc1.O=C(O)C(=O)O [Compound 6-oxalate, 6-β-(4′-Bromo)benzamido-14-hydroxy-17-(cyclopropylmethyl) nordesmorphine-oxalate]","Cocaine intake, schedule not stated",[12],decreased cocaine intake in both groups
same,Cocaine self-administration under a PR schedule,[12],dose-dependently decreased cocaine self-administration
same,Solubility in H2O,Solubility in H2O,0.2 mg/mL
"[D-pen2, D-pen5]-enkephalin [Compound 14, reference compound]",Emax,[6],0%
"C=C1CC[C@@]2(O)[C@H]3Cc4ccc(O)c5c4[C@@]2(CCN3CC2CC2)[C@H]1O5 [Compound 1b, nalmefene, reference compound]",Overall effect on operant self-administration of 10% ethanol,[13],had an overall effect
same,ED50,[13],~0.04 mg/kg
same,"Post hoc analysis vs vehicle, operant self-administration of 10% ethanol",[13]; [18],significantly inhibited
same,Overall effect on operant self-administration of saccharin vs vehicle,[14],did not have an overall effect
same,half-life at 40 μM,[4],0.333 h
same,half-life at 40 μM,[10],0.333 h
"O=C(N[C@@H]1CC[C@@]2(O)[C@H]3Cc4ccc(O)c5c4[C@@]2(CCN3CC2CC2)[C@H]1O5)c1ccc(Cl)cc1 [Compound 10, 6-β-(4′-Chloro)benzamido-14-hydroxy-17-(cyclopropylmethyl)nordesmorphine]",Emax,δ-opioid receptor [1],0%
same,Emax,μ-opioid receptor [2],0%
same,Emax,"κ-opioid receptor [3]; read-out: Emax, κ, stimulation of [35S]GTPγS binding, percentage of basal [35S]GTPγS binding stimulation",28 to 63%
same,Emax,μ-opioid receptor [5]; [16],46 ± 3.8%
same,Emax,"μ-opioid receptor [5]; read-out: Emax, μ, stimulation of [35S]GTPγS binding, percentage of basal [35S]GTPγS binding stimulation",28 to 63%
same,EC50,[7],88 ± 19 nM
same,melting point,,188.8 °C
same,Emax,κ-opioid receptor [8],0%
same,Emax,δ-opioid receptor [11]; [17],22 ± 1.7%
same,Emax,"δ-opioid receptor [11]; read-out: Emax, δ, stimulation of [35S]GTPγS binding, percentage of basal [35S]GTPγS binding stimulation",28 to 63%
"O=C(N[C@@H]1CC[C@@]2(O)[C@H]3Cc4ccc(O)c5c4[C@@]2(CCN3CC2CC2)[C@H]1O5)c1ccc(I)cc1 [Compound 7, 6-β-(4′-Iodo)benzamido-14-hydroxy-17-(cyclopropylmethyl)nordesmorphine]",Overall effect on operant self-administration of 10% ethanol,[13],had an overall effect
same,"Post hoc analysis vs vehicle, operant self-administration of 10% ethanol",[13]; only a dose of 0.05 mg/kg,significantly inhibited
same,Overall effect on operant self-administration of saccharin vs vehicle,[14],did have an overall effect
same,Emax,μ-opioid receptor [5]; [16],28 to 63%
same,Emax,[6],0%
same,Emax,δ-opioid receptor [11]; [17],28 to 63%
"O=C1CC[C@@]2(O)[C@H]3Cc4ccc(O)c5c4[C@@]2(CCN3CC2CC2)[C@H]1O5 [Compound 1a, naltrexone, reference compound]","Cocaine intake, schedule not stated",[12],decreased cocaine intake in both groups
same,ED50,[13],~0.5 mg/kg
"O=C(N[C@@H]1CC[C@@]2(O)[C@H]3Cc4ccc(O)c5c4[C@@]2(CCN3CC2CC2)[C@H]1O5)c1ccc(C(F)(F)F)cc1 [Compound 5, 6-β-(4′-Trifluoromethyl)benzamido-14-hydroxy-17-(cyclopropylmethyl)nordesmorphine]",Overall effect on operant self-administration of 10% ethanol,[13],had an overall effect
same,"Post hoc analysis vs vehicle, operant self-administration of 10% ethanol",[13]; [18],significantly inhibited
same,Overall effect on operant self-administration of saccharin vs vehicle,[14],did have an overall effect
same,"Post-hoc analysis vs vehicle, self-administration of saccharin","[14]; […] for 5, 0.05 mg/kg for 6, the only such doses",significantly inhibited
same,Emax,κ-opioid receptor [3]; [15],28 to 63%
same,"Half Life, Human liver preparation",[4],remained unchanged
same,Emax,μ-opioid receptor [5]; [16],28 to 63%
same,Emax,[6],0%
same,melting point,,157.5 °C
same,"Half Life, Mouse liver preparation",[10],remained unchanged
"CN(C(=O)/C=C/c1ccoc1)[C@H]1CC[C@@]2(O)[C@H]3Cc4ccc(O)c5c4[C@@]2(CCN3CC2CC2)[C@H]1O5.O=C(O)C(=O)O (relative stereo) [20a—Oxalate, 17-Cyclopropylmethyl-3,14β-dihydroxy-4,5α-epoxy-6α-[N-methyl-trans-3-(3-furyl)acrylamido]morphinan oxalate]",solubility,Solubility in H2O; water,16 mg/mL
"Oc1ccc2c3c1O[C@H]1c4[nH]c5c(c4C[C@@]4(O)[C@@H](C2)N(CC2CC2)CC[C@]314)C[C@@]1(O)[C@H]2Cc3ccc(O)c4c3[C@@]1(CCN2CC1CC1)[C@H]5O4 [Nor-BNI, reference compound]",Cocaine self-administration under a PR schedule,[12],decreased cocaine intake in LgA rats
"CC(C)(C)c1ccc(C(=O)N[C@@H]2CC[C@@]3(O)[C@H]4Cc5ccc(O)c6c5[C@@]3(CCN4CC3CC3)[C@H]2O6)cc1 [Compound 8, 6-(4′-t-Butyl)benzamido-14-hydroxy-17-(cyclopropylmethyl)nordesmorphine]",Overall effect on operant self-administration of 10% ethanol,[13],had an overall effect
same,"Post hoc analysis vs vehicle, operant self-administration of 10% ethanol",[13]; only a dose of 0.05 mg/kg,significantly inhibited
same,Overall effect on operant self-administration of saccharin vs vehicle,[14],did not have an overall effect
same,half-life at 40 μM,[4],> 1.87 h
same,Emax,[6],0%
same,melting point,,151.1 °C
same,half-life at 40 μM,[10],> 1.87 h
"CN(C(=O)c1ccc(Cl)cc1)[C@@H]1CC[C@@]2(O)[C@H]3Cc4ccc(O)c5c4[C@@]2(CCN3CC2CC2)[C@H]1O5.O=C(O)C(=O)O [17b—Oxalate, 6-β-(4′-Chloro)-N-methylbenzamido-14-hydroxy-17-(cyclopropylmethyl)nordesmorphine oxalate]",Solubility in H2O,Solubility in H2O,6 mg/mL
